Measurements published in PubChem BioAssay AID720563 (Broad Institute, 2013).
Values joined by “and” are separate entries in the source; they are usually repeats but may differ in a detail not shown here. Identical values can stand only once. Active and inactive are the calls of the source.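 Rule for the calls: active = compounds whose fitted AC50 lies at or below twice their top valid test dose; inconclusive = flat curve between -70 and -30 percent, or unreliable curve fit; inactive = the rest.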

The compounds below were run against Transforming acidic coiled-coil-containing protein 3 (Homo sapiens) (UniProt Q9Y6A5) (assay: potency against ARNT PAS-B/TACC3 association – biochemical, AlphaScreen, dry powder, dose response (AID 720563)). Details: AlphaScreen His-ARNT PAS-B/GST-TACC3 binding, luminescence.

AC50 | SMILES
0.797 µM | CC(C)CC(=O)NC(c1cccs1)c1ccc2cccnc2c1O (stereo unspecified)
5.81 µM | CSc1ccc(-c2nnc(NC(=O)c3ccc(S(=O)(=O)N4CCC(C)CC4)cc3)o2)cc1
11.4 µM | CC1CCN(S(=O)(=O)c2ccc(C(=O)Nc3nnc(-c4ccno4)o3)cc2)CC1
0.806 µM | Cc1ccc(C(=O)Nc2nc(-c3ccccn3)cs2)o1
16.7 µM | CC1CCN(S(=O)(=O)c2ccc(C(=O)Nc3nnc(C4CC4)o3)cc2)CC1
1.49 µM | O=C(Cc1ccccc1)NC(c1ccco1)c1ccc2cccnc2c1O (stereo unspecified)
1.68 µM | O=C(CSc1ccc(-c2ccccn2)nn1)N1CCCC1
34.1 µM | CC1CCN(S(=O)(=O)c2ccc(C(=O)Nc3nnc(-c4ccco4)o3)cc2)CC1
49.8 µM | CC1CCN(S(=O)(=O)c2ccc(C(=O)Nc3nnc(-c4cccs4)o3)cc2)CC1
11.2 µM | CC1CCCN(S(=O)(=O)c2ccc(C(=O)Nc3nnc(C4=COCCO4)o3)cc2)C1 (stereo unspecified)
0.342 µM | O=C(Nc1nc(-c2ccccn2)cs1)c1ccc(S(=O)(=O)N2CCOCC2)cc1
0.82 µM | O=C(Nc1nc(-c2ccccn2)cs1)c1ccco1
1.91 µM | COC(=O)Cc1cc(=O)n(-c2nc3ccccc3[nH]2)[nH]1
0.884 µM | O=C(CSc1n[nH]c(-c2ccccn2)n1)Nc1ccc(Cl)cc1
0.262 µM | O=C(CSc1ccc(-c2ccccn2)nn1)Nc1nccs1
14.3 µM | Cc1nnc(NC(=O)c2ccc(S(=O)(=O)N3CCCCC3)cc2)o1
1.24 µM | CCc1cc2c(=O)[nH]c(-c3ccccn3)nc2s1
0.649 µM | Nc1nc(-c2ccccn2)nc(N)c1Cc1ccc(Cl)cc1Cl
5.1 µM | CC(C)C(=O)NC(c1ccco1)c1cc(Cl)c2cccnc2c1O (stereo unspecified)

AC50 | SMILES
1.11 µM | Cc1ccc(C(=O)Nc2nc(-c3ccccn3)cs2)cc1S(=O)(=O)N1CCOCC1
23 µM | O=C(Nc1nnc(-c2ccc(F)cc2)o1)c1ccc(S(=O)(=O)N2CCCCC2)cc1
1.63 µM | O=C(CSc1ccc(-c2ccccn2)nn1)NC1CCCCC1
1.39 µM | CCCCC(=O)NC(c1ccco1)c1ccc2cccnc2c1O (stereo unspecified)
19.1 µM | O=C(Nc1nnc(C2=COCCO2)o1)c1ccc(S(=O)(=O)N2CCCCC2)cc1
1.75 µM | Cc1c(C(=O)N(C)C)sc2nc(-c3ccccn3)[nH]c(=O)c12
> 136 µM (inactive) | CC(C)Cc1nnc(NC(=O)c2cccc(S(=O)(=O)N3CCOCC3)c2)s1
0.819 µM | Cc1cccc(NC(=O)CSc2ccc(-c3ccccn3)nn2)c1C
0.869 µM | O=C(CSc1ccc(-c2ccccn2)nn1)Nc1ccccc1
0.368 µM and 0.19 µM | c1ccc(-c2nc(-c3ccncc3)n[nH]2)nc1
0.63 µM | COC(=O)c1ccc(NC(=O)CSc2ccc(-c3ccccn3)nn2)cc1
0.452 µM | CC(C)C(=O)NC(c1ccco1)c1ccc2cccnc2c1O (stereo unspecified)
39.6 µM | CC1CCN(S(=O)(=O)c2ccc(C(=O)Nc3nnc(-c4ccccn4)o3)cc2)CC1
17.6 µM | CC1CCN(S(=O)(=O)c2ccc(C(=O)Nc3nnc(C4=COCCO4)o3)cc2)CC1
17.8 µM | COc1ccc(-c2nnc(NC(=O)c3ccc(S(=O)(=O)N4CCC(C)CC4)cc3)o2)cc1
65.9 µM | O=C(Nc1nc(-c2ccncc2)cs1)c1cccc(S(=O)(=O)N2CCOCC2)c1
20.4 µM | CC1CCN(S(=O)(=O)c2ccc(C(=O)Nc3nnc(-c4ccccc4)o3)cc2)CC1
35.6 µM | CC1CC(C)CN(S(=O)(=O)c2ccc(C(=O)Nc3nnc(C4=COCCO4)o3)cc2)C1 (stereo unspecified)
> 136 µM (inactive) | Cc1ccc(C(=O)Nc2nc(-c3ccccc3)cs2)o1

SMILES | AC50
CCn1nc(-c2cccnc2)nc2c(=O)n(C)c(=O)nc1-2 | 0.0784 µM

Same assay, conditions: AlphaScreen His-ARNT PAS-B/GST-TACC3 binding, luminescence; at 68 µM (top of the series)

activity change, negative = inhibition | SMILES
inactive | FC(F)(F)c1cc(-c2nn[nH]n2)cc(C(F)(F)F)c1
inactive | Cc1ccc(S(=O)(=O)CCc2nnc(NC(=O)c3ccccc3)s2)cc1
